Experimental data as given in patent publication US11390631B1, “Benzodiazepine derivatives as RSV inhibitors” (priority 2015, dated 2022).
pEC50: −log10 of the molar value. Read-outs that look alike come from different tables or passages of the source.

Tested on: Human RSV-A (“Long” strain)
Assay: RSV-A assay: inhibition of cytopathic effect in Hep-2 cells, ATPlite readout
Type: cell-based, Human respiratory syncytial virus (HRSV)
Details: read-out: Human RSV-A (“Long” strain) EC50
Description: Hep-2 cells, (originally derived from tumors grown in irradiated-cortisonised weanling rats that had been injected with epidermoid carcinoma tissue from a person's larynx, but later found to be indistinguishable from HeLa cells by PCR DNA analysis), were used for the culturing of genotype A, “Long” strain RSV. Flasks were inoculated with RSV and viral stocks were collected once cytopathic effect (CPE) was greater than 90%. Viral stocks in 25% sucrose media were snap frozen using liquid nitrogen to increase viral stability. Viral stock titers were quantified by tissue culture infectious dose 50% (TCID50) using 8,000 cells per well and 3-fold viral dilutions across a 96-well plate, cultured for 4 days. Viral stock titers were also quantified by a plaque forming unit assay, as described elsewhere.
Following extensive parameter testing, the final assay is run as follows: Hep-2 cells are seeded into the inner 60 wells of a 96-well plate at 8,000 cells per well in a volume of 50 μL using Growth Media (DMEM without phenol red, 1% L-Glut, 1% Penn/Strep, 1% nonessential amino acids, 10% heat-inactivated FBS). 2-fold serial dilutions of control and test compounds are added to the wells in duplicate in a total volume of 25 μL. Viral stock is then added to the wells at a multiplicity of infection (MOI) of 0.1 in a volume of 25 μL, bringing the total volume of each well to 100 μL. The MOI is calculated using the PFU/mL, or TCID50 if unavailable. Each 96-well plate has a control column of 6 wells with cells and virus but no compound (negative control, max CPE), a column with cells but no compound or virus (positive control, minimum CPE), and a column with no cells or virus or compound (background plate/reagent control). The control wells with cells but no virus are given an additional 25 uL of growth media containing an equal quantity of sucrose as those wells receiving the viral stock in order to keep consistent in media and volume conditions. The outer wells of the plate are filled with 125 μL of moat media (DMEM, 1% Penn/Strep) to act as a thermal and evaporative moat around the test wells. Following a 5-day incubation period, the plates are read using ATPlite (50 uL added per well), which quantifies the amount of ATP (a measure of cell health) present in each well. Assay plates are read using the Envision luminometer. In parallel, cytotoxicity is examined on an additional 96-well plate treated in an identical manner, but substituting the 25 μL of viral stock for 25 μL of growth media. […] EC50 ranges are as follows: A<0.4 μM; B 0.4-0.8 μM; C>0.8 μM and CC50 ranges are as follows: A>50 μM; B 10-50 μM; C<10 μM.

[1] = Hep-2 cells, MOI 0.1, 5-day incubation, ATPlite
[2] = human respiratory syncytial virus, HEp-2, 120 h

Row | Structure (SMILES) | pEC50 [1] | pEC50 [2]
1 | O=C1Nc2ccccc2C(c2ccccc2)=N[C@H]1Nc1nnc(-c2nc(C(F)(F)F)sc2N2CCO[C@H]3C[C@H]32)o1 (single isomer, unassigned) [Example 485] | < 6.10 | –
2 | O=C1Nc2ccccc2C(c2ccccc2)=NC1Nc1nnc(-c2ccncc2N2CCCCC2)o1 (centres unmarked) [Example 141] | – | < 6.10
3 | Cc1nc(-c2nnc(N[C@H]3N=C(c4ccccc4)c4ccccc4NC3=O)o2)c(Cl)s1 [Example 344] | – | < 6.10
4 | O=C1Nc2ccccc2C(c2ccccc2)=NC1Nc1nnc(C2CC2)[nH]1 (centres unmarked) [Example 372] | – | < 6.10
5 | O=C1Nc2ccccc2C(c2ccccc2)=N[C@@H]1Nc1nnc(-c2ncc(C(F)(F)F)cc2N2CCOC(C(F)(F)F)C2)o1 (mixture of isomers) [Example 467] | – | > 6.40
6 | COCCCc1sc(C)nc1-c1nnc(N[C@H]2N=C(c3ccccc3)c3ccccc3NC2=O)o1 [Example 479] | – | < 6.10
7 | O=C1Nc2ccccc2C(c2ccccc2)=N[C@@H]1Nc1nnc(-c2cnc(C(F)(F)F)nc2N2CC3CCC(C2)O3)o1 [Example 290] | – | < 6.10
8 | N#Cc1ccc(-c2nnc(N[C@H]3N=C(c4ccccc4)c4ccccc4NC3=O)o2)c(-c2ccoc2)c1 [Example 319] | – | < 6.10
9 | CN1C(=O)C(Nc2nnc(-c3ccc(F)cc3)o2)N=C(c2ccccc2)c2ccccc21 (centres unmarked) [Example 201] | – | < 6.10
10 | N#CC1CCN(c2ncccc2-c2nnc(NC3N=C(c4ccccc4)c4ccccc4NC3=O)o2)CC1 (centres unmarked) [Example 260] | – | < 6.10
11 | O=C1Nc2ccccc2C(c2ccccc2)=NC1Nc1cnc(-c2ccc(F)cc2)cn1 (centres unmarked) [Example 373] | – | < 6.10
12 | O=C1Nc2ccccc2C(c2ccccc2)=NC1Nc1nnc(-c2cccnc2N2CCCC(F)(F)C2)o1 (centres unmarked) [Example 246] | – | < 6.10
13 | COc1cnc(-c2nnc(NC3N=C(c4ccccc4)c4ccccc4NC3=O)o2)c(F)c1 (centres unmarked) [Example 185] | – | < 6.10
14 | Cc1ccc(-c2nnc(N[C@H]3N=C(c4ccccc4)c4ccccc4NC3=O)o2)c(N2C3CCC2COC3)n1 [Example 280] | – | > 6.40
15 | CC1(c2nnc(NC3N=C(c4ccccc4)c4ccccc4NC3=O)o2)CC1 (centres unmarked) [Example 195] | – | < 6.10
16 | Cc1cc(-n2cncn2)ccc1-c1nnc(NC2N=C(c3ccccc3)c3ccccc3NC2=O)o1 (centres unmarked) [Example 218] | – | < 6.10
17 | COCCNc1sccc1-c1nnc(N[C@H]2N=C(c3ccccc3)c3ccccc3NC2=O)o1 [Example 472] | – | < 6.10
18 | C#Cc1cnc(-c2nnc(N[C@H]3N=C(c4ccccc4)c4ccccc4NC3=O)o2)c(N2CCOCC2)c1 [Example 311] | – | > 6.40
19 | O=C1Nc2ccccc2C(c2ccccc2)=N[C@@H]1Nc1nnc(-c2oc3cccc(F)c3c2N2CCOCC2)o1 [Example 477] | – | > 6.40
20 | O=C1Nc2ccccc2C(c2ccccc2)=NC1Nc1nnc(-c2cccnc2N2CCCCC2)o1 (centres unmarked) [Example 241] | – | < 6.10

Row | Structure (SMILES) | pEC50 [1] | pEC50 [2]
21 | O=C1Nc2ccccc2C(c2ccccc2)=NC1Nc1nnc(C2CCNC2)o1 (centres unmarked) [Example 221] | – | < 6.10
22 | CC(C)(O)c1nc(-c2nnc(N[C@H]3N=C(c4ccccc4)c4ccccc4NC3=O)o2)c(N2CCOCC2)s1 [Example 437] | – | > 6.40
23 | O=C1Nc2ccccc2C(c2ccccc2)=N[C@@H]1Nc1nnc(-c2ccc(F)cc2N2CCOCC2)o1 [Example 159] | – | > 6.40
24 | O=C1Nc2ccccc2C(c2ccccc2)=NC1Nc1nnc(-c2ccc(N3CCOCC3)nc2)o1 (centres unmarked) [Example 115] | – | > 6.40
25 | O=C1Nc2ccccc2C(c2ccccc2)=N[C@@H]1Nc1nnc(-c2nc(-c3ccccc3F)sc2N2CCOCC2)o1 [Example 427] | – | > 6.40
26 | O=C1Nc2ccccc2C(c2ccccc2)=N[C@@H]1Nc1nnc(-c2ncc(C(F)(F)F)cc2N[C@@H]2CCC[C@@H]2O)o1 [Example 423] | – | 6.10 to 6.40
27 | O=C1Nc2ccccc2C(c2ccccc2)=NC1Nc1nnc(-c2ccc(-n3cccn3)nc2)o1 (centres unmarked) [Example 211] | – | < 6.10
28 | O=C1Nc2ccccc2C(c2ccccc2)=N[C@@H]1Nc1nnc(-c2nc(-c3ccc(C(F)(F)F)nc3)sc2N2CCOCC2)o1 [Example 390] | – | > 6.40
29 | O=C1Nc2ccccc2C(c2ccccc2)=N[C@@H]1Nc1nnc(-c2nc(C(F)(F)F)sc2N2CCO[C@H]3C[C@H]32)o1 (single isomer, unassigned) [Example 484] | > 6.40 | –
30 | Cn1cc(N2CCOCC2)c(-c2nnc(N[C@H]3N=C(c4ccccc4)c4ccccc4NC3=O)o2)n1 [Example 164] | – | > 6.40
31 | O=C1Nc2ccccc2C(c2ccccc2)=NC1Nc1nnc(-c2ccccc2C2CCOCC2)o1 (centres unmarked) [Example 354] | – | < 6.10
32 | O=C1Nc2ccccc2C(c2ccccc2)=N[C@H]1Nc1nnc(-c2ccccc2N2CCOCC2)o1 [Example 125b] | – | < 6.10
33 | COc1cc(-c2nnc(NC3N=C(c4ccccc4)c4ccccc4NC3=O)o2)ccn1 (centres unmarked) [Example 56] | – | < 6.10
34 | O=C1Nc2ccccc2C(c2ccccc2)=NC1Nc1nnc(-c2ccc(C(F)(F)F)nc2N2CCOCC2)o1 (centres unmarked) [Example 130] | – | 6.10 to 6.40
35 | O=C1Nc2ccccc2C(c2ccccc2)=N[C@@H]1Nc1nnc(-c2ncc(C(F)(F)F)cc2N[C@H]2CC[C@H]2O)o1 [Example 417] | < 6.10 | –
36 | O=C1Nc2ccccc2C(c2ccccc2)=NC1Nc1ccc(-c2ccc(F)cc2)nn1 (centres unmarked) [Example 374] | – | < 6.10
37 | O=C1Nc2ccccc2C(c2ccccc2)=N[C@@H]1Nc1nnc(-c2cc3ccccc3nc2N2CCOCC2)o1 [Example 434] | – | > 6.40
38 | O=C1Nc2ccccc2C(c2ccccc2)=NC1Nc1nnc(-c2cccnc2N2CC3CCC(C2)O3)o1 (centres unmarked) [Example 266] | – | 6.10 to 6.40
39 | CC1(C)CC(c2nnc(NC3N=C(c4ccccc4)c4ccccc4NC3=O)o2)C1 (centres unmarked) [Example 206] | – | < 6.10
40 | COCCNc1sc(C)nc1-c1nnc(N[C@H]2N=C(c3ccccc3)c3ccccc3NC2=O)o1 [Example 335] | – | > 6.40

Row | Structure (SMILES) | pEC50 [1] | pEC50 [2]
41 | O=C1Nc2ccccc2C(c2ccccc2)=N[C@@H]1Nc1nnc(-c2cnc(-n3cncn3)nc2N2CCOCC2)o1 [Example 173] | – | < 6.10
42 | CN(CC(C)(C)O)c1cc(C(F)(F)F)cnc1-c1nnc(N[C@H]2N=C(c3ccccc3)c3ccccc3NC2=O)o1 [Example 308] | – | < 6.10
43 | O=C1Nc2ccccc2C(c2ccccc2)=NC1Nc1nnc(-c2cccnc2N2C[C@H]3COC[C@H]3C2)o1 (some centres unmarked) [Example 267] | – | < 6.10
44 | CO[C@@H](C)CNc1sc(C(F)(F)F)nc1-c1nnc(N[C@H]2N=C(c3ccccc3)c3ccccc3NC2=O)o1 [Example 452] | – | > 6.40
45 | Cn1nnc(-c2ccc(-c3nnc(NC4N=C(c5ccccc5)c5ccccc5NC4=O)o3)cc2)n1 (centres unmarked) [Example 186] | – | < 6.10
46 | COc1ccc(-c2nnc(N[C@H]3N=C(c4ccccc4)c4ccccc4NC3=O)o2)c(N2CCOCC2)n1 [Example 295] | – | > 6.40
47 | N#Cc1ccn2ncc(-c3nnc(N[C@H]4N=C(c5ccccc5)c5ccccc5NC4=O)o3)c2c1 [Example 441] | – | < 6.10
48 | O=C1Nc2ccccc2C(c2ccccc2)=NC1Nc1ncc(-c2ccccc2)cn1 (centres unmarked) [Example 371] | – | < 6.10
49 | O=C1Nc2ccccc2C(c2ccccc2)=N[C@H]1Nc1nnc(-c2ccc(N3CCOCC3)cc2F)o1 [Example 126b] | – | < 6.10
50 | CC1(C)C[C@@H]1c1nnc(NC2N=C(c3ccccc3)c3ccccc3NC2=O)o1 (some centres unmarked) [Example 205] | – | < 6.10
51 | O=C1Nc2ccccc2C(c2ccccc2)=N[C@@H]1Nc1nnc(-c2cn(-c3ccc(C(F)(F)F)cn3)nc2N2CCOCC2)o1 [Example 440] | – | 6.10 to 6.40
52 | O=C1Nc2ccccc2C(c2ccccc2)=N[C@@H]1Nc1nnc(-c2ncc(C(F)(F)F)cc2N[C@@H]2CCOC2)o1 [Example 464] | – | > 6.40
53 | O=C1Nc2c(F)cccc2C(c2ccccc2)=N[C@H]1Nc1nnc(-c2ccccc2N2CCOCC2)o1 [Example 355b] | – | < 6.10
54 | O=C1Nc2ccccc2C(c2ccccc2)=N[C@@H]1Nc1nnc(-c2ccsc2N2CCOCC2)o1 [Example 471] | – | > 6.40
55 | N#CCCc1nnc(NC2N=C(c3ccccc3)c3ccccc3NC2=O)o1 (centres unmarked) [Example 193] | – | < 6.10
56 | O=C1Nc2ccccc2C(c2ccccc2)=NC1Nc1nnc(-c2ccccc2-c2ccncc2)o1 (centres unmarked) [Example 226] | – | < 6.10
57 | O=C1Nc2ccccc2C(c2ccccc2)=NC1Nc1nnc(-c2ccc(N3CCOCC3)cc2)o1 (centres unmarked) [Example 124a] | – | > 6.40
58 | CNc1cc(C(F)(F)F)cnc1-c1nnc(N[C@H]2N=C(c3ccccc3)c3ccccc3NC2=O)o1 [Example 307] | – | < 6.10
59 | O=C1Nc2ccccc2C(c2ccccc2)=NC1Nc1nnc(-c2cc(F)cnc2N2CCOCC2)o1 (centres unmarked) [Example 145] | – | 6.10 to 6.40
